Assay results from patent publication US9346809B2 (LEO PHARMA A/S, priority 2009, dated 2016).
Like-named read-outs stand apart in the source and are kept apart here.

Tests used:
Type in all cases: biochemical
[1] = target: T1, JAK1 (aa 850-1154, catalytic domain, GST-tag) (Homo sapiens, UniProt P23458); assay: JAK kinase assay (HTRF, phosphorylation of TK substrate-biotin), JAK1; settings: ATP at Km (7 μM)
T1 construct: JAK1 (aa 850-1154) and TYK2 (aa 871-1187) are expressed with an N-terminally fused GST-tag; GST (N); purchased Carna Biosciences, Inc; host or cells: baculovirus expression system
Method in brief: (§1)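 EC50 values come from HTRF signal of phospho-peptide detected by STK Ab Cryptate and Streptavidin-XL665 after overnight incubation. Reactions ran 20-30 min at RT in Hepes pH 7.0, 0.01% BSA, 1 mM DTT, with ATP at Km: 7, 4, 2 and 13 μM for JAK1, JAK2, JAK3, TYK2.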

[2] = target: T2, TYK2 (aa 871-1187, catalytic domain, GST-tag) (Homo sapiens, UniProt P29597); assay: JAK kinase assay (HTRF, phosphorylation of TK substrate-biotin), TYK2; settings: ATP at Km (13 μM)
T2 construct: JAK1 (aa 850-1154) and TYK2 (aa 871-1187) are expressed with an N-terminally fused GST-tag; GST (N); purchased Carna Biosciences, Inc; host or cells: baculovirus expression system
T2 sequence (P29597 871-1187): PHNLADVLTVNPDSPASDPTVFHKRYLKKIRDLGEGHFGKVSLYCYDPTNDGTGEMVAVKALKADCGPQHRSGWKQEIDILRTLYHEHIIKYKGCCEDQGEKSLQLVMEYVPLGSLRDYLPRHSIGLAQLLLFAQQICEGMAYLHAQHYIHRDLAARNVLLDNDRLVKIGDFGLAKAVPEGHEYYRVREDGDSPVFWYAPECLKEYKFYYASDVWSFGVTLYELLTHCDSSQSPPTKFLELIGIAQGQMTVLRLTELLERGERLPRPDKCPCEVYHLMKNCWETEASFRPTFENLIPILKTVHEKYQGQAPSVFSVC
Method in brief: as §1

[3] = target: T3, JAK3 (catalytic domain, His-tag) (Homo sapiens, UniProt P52333); assay: JAK kinase assay (HTRF, phosphorylation of TK substrate-biotin), JAK3; settings: ATP at Km (2 μM)
T3 construct: All four purified enzymes contain only the catalytic domain; His (N); purchased Carna Biosciences, Inc; host or cells: baculovirus expression system
Method in brief: as §1

[4] = target: T4, JAK2 (catalytic domain, His-tag) (Homo sapiens, UniProt O60674); assay: JAK kinase assay (HTRF, phosphorylation of TK substrate-biotin), JAK2; settings: ATP at Km (4 μM)
T4 construct: All four purified enzymes contain only the catalytic domain; His (N); purchased Carna Biosciences, Inc; host or cells: baculovirus expression system
Method in brief: as §1

[5] = read-out: JAK1 kinase inhibitory activity (EC50 indicator)
[6] = read-out: TYK2 kinase inhibitory activity (EC50 indicator)
[7] = read-out: JAK3 kinase inhibitory activity (EC50 indicator)
[8] = read-out: JAK2 kinase inhibitory activity (EC50 indicator)
[9] = HTRF assay, read-out: JAK1 kinase inhibitory activity (EC50 indicator)
[10] = HTRF assay, read-out: TYK2 kinase inhibitory activity (EC50 indicator)
[11] = HTRF assay, read-out: JAK3 kinase inhibitory activity (EC50 indicator)
[12] = HTRF assay, read-out: JAK2 kinase inhibitory activity (EC50 indicator)

T1 sequence (P23458 850-1154): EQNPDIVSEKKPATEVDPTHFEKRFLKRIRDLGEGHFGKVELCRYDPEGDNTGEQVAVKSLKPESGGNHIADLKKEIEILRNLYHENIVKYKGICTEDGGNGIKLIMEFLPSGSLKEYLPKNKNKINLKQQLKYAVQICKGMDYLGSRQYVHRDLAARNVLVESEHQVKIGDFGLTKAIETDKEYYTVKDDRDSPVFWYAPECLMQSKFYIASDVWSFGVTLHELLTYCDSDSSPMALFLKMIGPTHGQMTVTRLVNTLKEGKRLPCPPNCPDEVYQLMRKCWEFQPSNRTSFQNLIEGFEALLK
T4 sequence (O60674 849-1124 limits assumed): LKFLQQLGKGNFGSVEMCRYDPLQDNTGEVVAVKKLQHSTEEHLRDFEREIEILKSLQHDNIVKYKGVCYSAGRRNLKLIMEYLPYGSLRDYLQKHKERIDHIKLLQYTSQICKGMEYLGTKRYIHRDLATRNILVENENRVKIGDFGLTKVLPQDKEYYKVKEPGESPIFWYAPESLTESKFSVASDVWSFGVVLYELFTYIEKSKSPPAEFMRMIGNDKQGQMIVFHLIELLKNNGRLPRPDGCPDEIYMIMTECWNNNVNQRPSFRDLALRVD
T3 sequence (P52333 822-1111 limits assumed): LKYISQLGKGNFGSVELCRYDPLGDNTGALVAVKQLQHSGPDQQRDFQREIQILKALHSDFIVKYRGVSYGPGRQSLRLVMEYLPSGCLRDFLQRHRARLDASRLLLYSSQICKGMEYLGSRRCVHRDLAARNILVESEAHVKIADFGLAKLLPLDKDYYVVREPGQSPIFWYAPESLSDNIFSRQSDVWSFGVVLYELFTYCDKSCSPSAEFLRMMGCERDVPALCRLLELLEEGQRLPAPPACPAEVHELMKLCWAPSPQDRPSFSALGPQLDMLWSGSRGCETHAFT

EC50 [1, 5] | EC50 [2, 6] | EC50 [3, 7] | EC50 [4, 8] | EC50 [1, 9] | EC50 [2, 10] | EC50 [3, 11] | EC50 [4, 12] | SMILES | other results
100 to 500 nM | > 500 nM | > 500 nM | < 100 nM | – | – | – | – | O=C(N1CCN(c2ncnc3[nH]ccc23)CC12CC2)C1(c2ccccc2)CC1 [Example 154, (1-Phenyl-cyclopropyl)-[7-(7H-pyrrolo[2,3-d]pyrimidin-4-yl)-4,7-diaza-spiro[2.5]oct-4-yl]-methanone] | –
– | – | – | – | < 100 nM | 100 to 500 nM | < 100 nM | < 100 nM | CCCNS(=O)(=O)c1ccc(C(=O)N2CCN(c3ncnc4[nH]ccc34)CC23CC3)cc1 [Example 377, N-Propyl-4-[7-(7H-pyrrolo[2,3-d]pyrimidin-4-yl)-4,7-diaza-spiro[2.5]octane-4-carbonyl]-benzenesulfonamide] | –
– | – | – | – | < 100 nM | > 500 nM | 100 to 500 nM | < 100 nM | N#Cc1ccc(C(=O)N2[C@@H]3CC[C@@H]2CN(c2ncnc4[nH]ccc24)C3)c(F)c1 [Example 351, 3-Fluoro-4-[3-(7H-pyrrolo[2,3-d]pyrimidin-4-yl)-3,8-diaza-bicyclo[3.2.1]octane-8-carbonyl]-benzonitrile] | –
– | – | – | – | < 100 nM | < 100 nM | < 100 nM | < 100 nM | COc1ccc(C(=O)N2CCN(c3ncnc4[nH]ccc34)CC23CC3)s1 [Example 206, (5-Methoxy-thiophen-2-yl)-[7-(7H-pyrrolo[2,3-d]pyrimidin-4-yl)-4,7-diaza-spiro[2.5]oct-4-yl]-methanone] | –
– | – | – | – | < 100 nM | 100 to 500 nM | 100 to 500 nM | < 100 nM | Cc1ccc(C(=O)N2CCN(c3ccnc4[nH]ccc34)CC23CC3)s1 [Example 231, (5-Methyl-thiophen-2-yl)-[7-(1H-pyrrolo[2,3-b]pyridin-4-yl)-4,7-diaza-spiro[2.5]oct-4-yl]-methanone] | –
< 100 nM | > 500 nM | 100 to 500 nM | < 100 nM | – | – | – | – | CC(C)S(=O)(=O)c1ccc(C(=O)N2CCN(c3ncnc4[nH]ccc34)CC23CC3)cc1 [Example 196, [4-(Propane-2-sulfonyl)-phenyl]-[7-(7H-pyrrolo[2,3-d]pyrimidin-4-yl)-4,7-diaza-spiro[2.5]oct-4-yl]-methanone] | –
– | – | – | – | < 100 nM | 100 to 500 nM | < 100 nM | < 100 nM | CC(C)(C)OC(=O)NCCNS(=O)(=O)c1ccc(C(=O)N2CCN(c3ncnc4[nH]ccc34)CC23CC3)cc1 [Example 428, (2-{4-[7-(7H-Pyrrolo[2,3-d]pyrimidin-4-yl)-4,7-diaza-spiro[2.5]octane-4-carbonyl]-benzenesulfonylamino}-ethyl)-carbamic acid tert-butyl ester] | –
– | – | – | – | – | – | – | – | Cc1ccc(S(=O)(=O)N2CCN(c3ncnc4[nH]ccc34)CC23CC3)cc1 [Example 439, 4-[4-(Toluene-4-sulfonyl)-4,7-diazaspiro[2.5]oct-7-yl]-7H-pyrrolo[2,3-d]pyrimidine] | EC50 ([1]; HTRF assay, read-out: JAK1 kinase inhibitory activity (EC50)): < 100 nM; EC50 ([2]; HTRF assay, read-out: TYK2 kinase inhibitory activity (EC50)): 100 to 500 nM; EC50 ([3]; HTRF assay, read-out: JAK3 kinase inhibitory activity (EC50)): < 100 nM; EC50 ([4]; HTRF assay, read-out: JAK2 kinase inhibitory activity (EC50)): < 100 nM
< 100 nM | > 500 nM | < 100 nM | < 100 nM | – | – | – | – | N#CCC(=O)N1CCN(c2ncnc3[nH]ccc23)CC12CC2 [Example 54, 3-Oxo-3-[7-(7H-pyrrolo[2,3-d]pyrimidin-4-yl)-4,7-diazaspiro[2.5]oct-4-yl]propionitrile] | –
100 to 500 nM | > 500 nM | 100 to 500 nM | 100 to 500 nM | – | – | – | – | C#CCOC(=O)N1[C@@H]2CC[C@H]1CN(c1ncnc3[nH]ccc13)C2 [Example 59, 3-(7H-Pyrrolo[2,3-d]pyrimidin-4-yl)-3,8-diazabicyclo[3.2.1]octane-8-carboxylic acid prop-2-ynyl ester] | –
< 100 nM | > 500 nM | 100 to 500 nM | < 100 nM | – | – | – | – | O=C(c1ccc(-c2ccccc2)cc1)N1CCN(c2ncnc3[nH]ccc23)CC12CC2 [Example 5, Biphenyl-4-yl-[7-(7H-pyrrolo[2,3-d]pyrimidin-4-yl)-4,7-diazaspiro[2.5]oct-4-yl]methanone] | –
– | – | – | – | 100 to 500 nM | > 500 nM | < 100 nM | 100 to 500 nM | O=C(Cc1ccc(C(F)(F)F)cc1)N1CCN(c2ncnc3[nH]cc(Cl)c23)CC12CC2 [Example 321, 1-[7-(5-Chloro-7H-pyrrolo[2,3-d]pyrimidin-4-yl)-4,7-diaza-spiro[2.5]oct-4-yl]-2-(4-trifluoromethyl-phenyl)-ethanone] | –
100 to 500 nM | > 500 nM | 100 to 500 nM | 100 to 500 nM | – | – | – | – | N#CCCC(=O)N1CCN(c2ccnc3[nH]ccc23)CC12CC2 [Example 116, 4-Oxo-4-[7-(1H-pyrrolo[2,3-b]pyridin-4-yl)-4,7-diaza-spiro[2.5]oct-4-yl]-butyronitrile] | –
– | – | – | – | > 500 nM | > 500 nM | 100 to 500 nM | 100 to 500 nM | N#CCCC(=O)N1CCN(c2ncnc3[nH]cc(Cl)c23)CC12CC2 [Example 325, 4-[7-(5-Chloro-7H-pyrrolo[2,3-d]pyrimidin-4-yl)-4,7-diaza-spiro[2.5]oct-4-yl]-4-oxo-butyronitrile] | –
100 to 500 nM | > 500 nM | > 500 nM | 100 to 500 nM | – | – | – | – | CC(=O)NCC(=O)N1CCN(c2ncnc3[nH]ccc23)CC12CC2 [Example 151, N-{2-Oxo-2-[7-(7H-pyrrolo[2,3-d]pyrimidin-4-yl)-4,7-diaza-spiro[2.5]oct-4-yl]-ethyl}-acetamide] | –
– | – | – | – | < 100 nM | > 500 nM | 100 to 500 nM | < 100 nM | Cc1ccc2sc(C(=O)N3[C@@H]4CC[C@H]3CN(c3ncnc5[nH]ccc35)C4)cc2c1 [Example 247, (5-Methyl-benzo[b]thiophen-2-yl)-[3-(7H-pyrrolo[2,3-d]pyrimidin-4-yl)-3,8-diaza-bicyclo[3.2.1]oct-8-yl]-methanone] | –
– | – | – | – | < 100 nM | < 100 nM | < 100 nM | < 100 nM | NS(=O)(=O)c1ccc(OCC(=O)N2CCN(c3ncnc4[nH]ccc34)CC23CC3)cc1 [Example 399, 4-{2-Oxo-2-[7-(7H-pyrrolo[2,3-d]pyrimidin-4-yl)-4,7-diaza-spiro[2.5]oct-4-yl]-ethoxy}-benzenesulfonamide] | –
– | – | – | – | < 100 nM | > 500 nM | 100 to 500 nM | < 100 nM | N#CCOc1ccc(C(=O)N2[C@@H]3CC[C@@H]2CN(c2ncnc4[nH]ccc24)C3)cc1 [Example 342, {4-[3-(7H-Pyrrolo[2,3-d]pyrimidin-4-yl)-3,8-diaza-bicyclo[3.2.1]octane-8-carbonyl]-phenoxy}-acetonitrile] | –
< 100 nM | 100 to 500 nM | 100 to 500 nM | < 100 nM | – | – | – | – | O=C(c1cccc(C(F)(F)F)c1)N1CCN(c2ncnc3[nH]ccc23)CC12CC2 [Example 20, [7-(7H-Pyrrolo[2,3-d]pyrimidin-4-yl)-4,7-diazaspiro[2.5]oct-4-yl]-(3-trifluoromethylphenyl)methanone] | –
– | – | – | – | < 100 nM | 100 to 500 nM | < 100 nM | < 100 nM | O=C(c1csc2ccccc12)N1[C@H]2CC[C@H]1CN(c1ncnc3[nH]ccc13)C2 [Example 246, Benzo[b]thiophen-3-yl-[3-(7H-pyrrolo[2,3-d]pyrimidin-4-yl)-3,8-diaza-bicyclo[3.2.1]oct-8-yl]-methanone] | –
– | – | – | – | < 100 nM | < 100 nM | < 100 nM | < 100 nM | Cc1ccc(CNS(=O)(=O)c2ccc(C(=O)N3CCN(c4ncnc5[nH]ccc45)CC34CC4)cc2)o1 [Example 427, N-(5-Methyl-furan-2-ylmethyl)-4-[7-(7H-pyrrolo[2,3-d]pyrimidin-4-yl)-4,7-diaza-spiro[2.5]octane-4-carbonyl]-benzenesulfonamide] | –
– | – | – | – | < 100 nM | 100 to 500 nM | 100 to 500 nM | < 100 nM | O=C(c1ccc(S(=O)(=O)NCC2CCCO2)cc1)N1CCN(c2ncnc3[nH]ccc23)CC12CC2 (stereo not shown) [Example 394, 4-[7-(7H-Pyrrolo[2,3-d]pyrimidin-4-yl)-4,7-diaza-spiro[2.5]octane-4-carbonyl]-N-(tetrahydro-furan-2-ylmethyl)-benzenesulfonamide] | –
